Measured values reported in US11285161B2, “Method and composition for treating mental disorder and pain associated with nerve damage” (City University of Hong Kong, priority 2019, dated 2022).

Key:
[1] = test system: mice; assay: Acute forced swim test; type: in vivo, mouse; details: 30 μg/kg intraperitoneally 30 minutes before test, 5-minute test, vs saline, FIG. 3B
Experimental: In the forced swim test, mice were forced to swim in a narrow cylinder from which they cannot escape. A Plexiglas cylinder (13 cm diameter and 24 cm high) containing water (22° C.±2° C.) to a depth of 10 cm was used. The mice were injected intraperitoneally with YM022 (30 μg/kg), YF476 (30 μg/kg) or saline 30 minutes before the test. After placing the animals in the cylinders, the duration of immobility during the 5-minute test were measured.

[2] = biological target: T1, CCK2 receptor (Homo sapiens, UniProt P32239); details: cited from earlier work
T1 sequence (P32239 1-447): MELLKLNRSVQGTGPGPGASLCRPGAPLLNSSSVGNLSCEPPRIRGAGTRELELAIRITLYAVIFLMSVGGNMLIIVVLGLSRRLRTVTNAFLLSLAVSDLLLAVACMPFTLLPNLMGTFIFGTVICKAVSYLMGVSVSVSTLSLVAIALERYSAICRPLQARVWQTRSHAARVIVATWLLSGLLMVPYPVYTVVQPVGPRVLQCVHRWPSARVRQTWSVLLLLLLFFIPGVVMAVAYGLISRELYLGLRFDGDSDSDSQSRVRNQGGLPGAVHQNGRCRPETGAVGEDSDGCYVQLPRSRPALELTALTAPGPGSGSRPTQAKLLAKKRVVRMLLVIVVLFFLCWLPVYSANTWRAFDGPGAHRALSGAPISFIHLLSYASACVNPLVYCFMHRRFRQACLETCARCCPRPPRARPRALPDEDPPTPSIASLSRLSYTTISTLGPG

[3] = test system: spared nerve injury (SNI) mice; assay: Tail suspension test in spared nerve injury (SNI) mice; type: in vivo, mouse; details: 30 ng/kg Day 7-Day 30, tested Day 40 (10 days after discontinuation), vs SNI-saline and Sham-saline, FIG. 1A
Excerpt: (§1) The antidepressant and analgesic activities of the compound of formula (IIb) (referred to as YM022) and the compound of formula (IIIb) (referred to as YF476) were investigated in a mouse model of spared nerve injury (SNI). The SNI model is a partial denervation model in which the injured nerves produce consistent pain hypersensitivity in the territory of the spared sural nerve, wherein the spared nerve injury can provoke depressive-like behaviors. In the experiment, depressive-like behaviors were assessed by a tail suspension test and monitoring body weight. Responses to pain were tested by measuring the sensitivity to mechanical stimulation by von Frey filaments.
(§2) For the SNI surgery, the mice were anesthetized by intraperitoneal injection of ketamine (100 mg/kg) and xylazine (15 mg/kg). […]
(§3) After SNI surgery (Day 0), the mice were treated with the compound of formula (IIb) (referred to as YM022) and the compound of formula IIIb (referred to as YF476), both at 30 ng/kg, for 24 days (Day 7-Day 30). The bodyweight of the mice were measured (FIG. 1B) and the tail suspension test (FIG. 1A) was carried out on Day 40 to assess the depressive status. […] A blinded observer monitored the test for 6 min and recorded the immobility time.

[4] = test system: mice; assay: Acute tail suspension test; type: in vivo, mouse; details: 3 μg/kg or 30 μg/kg intraperitoneally 30 minutes before test, vs saline, FIG. 3A
Experimental: After SNI surgery (Day 0), the mice were treated with the compound of formula (IIb) (referred to as YM022) and the compound of formula IIIb (referred to as YF476), both at 30 ng/kg, for 24 days (Day 7-Day 30). The bodyweight of the mice were measured (FIG. 1B) and the tail suspension test (FIG. 1A) was carried out on Day 40 to assess the depressive status. In the tail suspension test, each mouse was suspended by its tail and secured by adhesive tape to the suspension bar. A blinded observer monitored the test for 6 min and recorded the immobility time.
In another acute tail suspension test, mice were injected intraperitoneally with YM022 (3 μg/kg or 30 μg/kg), YF476 (3 μg/kg or 30 μg/kg) or saline 30 minutes before the test. The tail suspension test was then performed as described above.

[5] = test system: spared nerve injury (SNI) mice; assay: Von Frey filament test in SNI mice; type: in vivo, mouse; details: Day 8 (after drug injection), FIG. 2
Excerpt: as §1
For the SNI surgery, the mice were anesthetized by intraperitoneal injection of ketamine (100 mg/kg) and xylazine (15 mg/kg). The skin on the lateral surface of the left thigh was cleaned and incised, and then sterile scissors were used to expose three branches of the sciatic nerves: namely sural, common peroneal, and tibial nerves. […]
The Von Frey filament test was used 1 day before the surgery (Day-1) or on Day 1, Day 7 (after drug injection), Day 8 (after drug injection) to estimate the sensitivity of the mice to the mechanical stimulation. […] Response in three out of five stimuli was regarded as a positive reaction and the threshold level was recorded (FIG. 2).

[6] = test system: spared nerve injury (SNI) mice; assay: Body weight of SNI mice; type: in vivo, mouse; details: 30 ng/kg Day 7-Day 30, Day 40, vs SNI-saline, FIG. 1B
Excerpt: as §1, §2, §3

[7] = biological target: T1, CCK2 receptor
[8] = biological target: T2, CCK1 receptor (Homo sapiens, UniProt P32238); details: read-out: IC50 to the CCK1 receptor; cited from earlier work
T2 sequence (P32238 1-428): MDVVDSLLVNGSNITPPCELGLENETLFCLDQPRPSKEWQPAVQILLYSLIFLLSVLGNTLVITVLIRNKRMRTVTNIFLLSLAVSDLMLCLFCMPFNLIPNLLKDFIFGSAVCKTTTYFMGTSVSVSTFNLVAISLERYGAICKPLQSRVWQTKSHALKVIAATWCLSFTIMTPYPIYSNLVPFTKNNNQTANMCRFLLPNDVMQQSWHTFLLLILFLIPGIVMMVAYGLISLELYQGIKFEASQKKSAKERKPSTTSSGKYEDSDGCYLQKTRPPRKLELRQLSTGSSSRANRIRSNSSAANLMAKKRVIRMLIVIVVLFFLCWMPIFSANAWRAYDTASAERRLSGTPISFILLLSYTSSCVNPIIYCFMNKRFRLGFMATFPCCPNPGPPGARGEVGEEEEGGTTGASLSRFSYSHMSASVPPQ

| Compound | immobile time in forced swim test [1] | IC50 [2] [nM] | immobile time in tail suspension test [3] | immobile time in acute tail suspension test [4] | mechanical threshold in Von Frey filament test [5] | body weight [6] | selectivity CCK2 versus CCK1 receptor [7] | IC50 [8] [nM] |
| --- | --- | --- | --- | --- | --- | --- | --- | --- |
| CNc1cccc(NC(=O)N[C@@H]2N=C(c3ccccn3)c3ccccc3N(CC(=O)C(C)(C)C)C2=O)c1 [YF476] | less immobile time | 0.11 | reduced immobile time | less immobile time | higher mechanical threshold | increased body weight | selectively inhibit CCK2 receptors | 500 |
| Cc1cccc(NC(=O)N[C@@H]2N=C(c3ccccc3)c3ccccc3N(CC(=O)c3ccccc3C)C2=O)c1 [YM022] | less immobile time | 0.07 | reduced immobile time | less immobile time | higher mechanical threshold | increased body weight | selectively inhibit CCK2 receptors | 63 |
